One experiment concerns MC38 colon carcinoma. The experiment is described as follows: MC38 protection (prophylactic vaccination) model. The arrangement: key to Anti-tumor efficacy in MC38 protection model: +/-, p < 0.05 versus DC only for 2 consecutive time points; - not significant at any time point analyzed. To be noted: for Anti-tumor efficacy in MC38 protection model: DC.IL12 pulsed with a pool of 1 or more peptides derived from the indicated TBVA, vaccination d-14, d-7; for Protection against HLA-A2neg MC38 tumor challenge: immunization days -14 and -7, tumor challenge day 0 (FIG. 9B). It counts as in vivo, HHD mice. The text has this: FIGS. 9A-9B show a series of graphs illustrating induction of specific/protective CD8^+ T cells reactive against TASA as a consequence of DC/peptide-based vaccination. In FIG. 9A, HHD mice (five animals/cohort) were vaccinated twice (d-14, d-7) subcutaneously with PBS or with isologous DC.IL12 pulsed with PBS or synthetic peptides (Table 6) derived from the indicated TASA. In cases where more than 1 peptide was identified for a given target antigen, an equimolar pool of the indicated peptides (each 10 μM) was pulsed onto DC.IL12 and used for vaccination in the relevant cohort. One week after the second immunization, spleens were harvested and splenic CD8^+ T cells isolated using MACS-beads (Miltenyi). T cells were stimulated in vitro for 48 h using the HLA-A2^+ T2 cell line pulsed with relevant TASA vs. irrelevant HIV-nef190-198 ([…]; ref. 24) peptides. Cell-free supernatants were then recovered and IFN-γ levels by ELISA. Data are reported as mean+/−SD for triplicate ELISA determinations, and are representative of 3 independent experiments performed. *p<0.05 vs. HIV-nef control peptide responses. In FIG. 9B, HHD mice were vaccinated twice (days −14 and −7; right flank) subcutaneously with PBS or with isologous DC.IL12 pulsed with PBS or synthetic TASA peptides as indicated in FIG. 1A. In cases where more than 1 peptide is identified for a given target antigen, an equimolar pool of the indicated peptides (each 10 μM) was pulsed onto DC.IL12 and used for vaccination in the relevant cohort. One week after the booster vaccine (i.e. day zero), animals were challenged subcutaneously on their left flank with 2×10^6 MC38 colon carcinoma cells. Tumor growth was then monitored every 3-4 days through day 24. All data represent mean tumor area (in mm^2)+/−SD determined from 5 mice/cohort, and are representative of three independent experiments performed. *p<0.05 versus DC only on the indicated days.
Vaccine Experiments. For prophylactic experiments, HHD mice were immunized subcutaneously on the right flank with 100 μl PBS or PBS containing 10^6 syngenic DC.IL12 cells that had been untreated or pre-pulsed for 4 h at 37° C. with 10 μM synthetic peptide(s). Immunizations occurred on days −14 and −7, with mice subsequently receiving injections of MC38 (2×10^6) tumor cells in the left flank on d0. In all cases, treatment groups contained 5 mice per cohort. For analysis of tumor cellular composition in repeat experiments, MC38 tumors were isolated by surgical resection 10 days after tumor inoculation and prepared for fluorescence imaging, as described below. […] Mice were then untreated or treated with control, syngenic DC.IL12 or DC.IL12 (10^6 cells injected subcutaneously in the left flank on days 7 and 14) pulsed with synthetic TBVA peptides. In some assays, as indicated, in vivo antibody depletions (on days 6, 13 and 20 post-tumor inoculation to assess early involvement or on days 60 and 67 or 180 and 187 to assess late involvement) of protective CD4^+ T cells or CD8^+ T cells were performed and monitored as previously described (Zhao et al., Mol Ther., 19:805-814, 2011). In all cases, tumor size (area) was monitored every 3-4 days and is reported as mean+/−SD in mm^2.
The DLK1, EphA2, HBB, NG2, NRP1, NRP2, PDGFRβ, PSMA, RGS5, TEM1, VEGFR1 and VEGFR2 antigens were expressed in situ by blood vessel cells in the MC38 colon carcinoma TME (FIG. 14). Protection of HHD mice against a challenge with HLA-A2^neg MC38 tumor cells injected subcutaneously on day zero was assayed with immunization with TBVA-derived peptides on days −14 and −7. […]

For experiment [1], the system named is MC38 tumor microenvironment. The experiment is described as follows: Fluorescence imaging of MC38 tumor sections after prophylactic vaccination. To be noted: day 14 tumors; p<0.05 vs. untreated or DC.IL12/no peptide. It counts as in vivo, HHD mice. The source says: Day 14 MC38 tumors were harvested from HHD mice that had been vaccinated as outlined in FIG. 9B with the indicated peptides (or control PBS or DC.IL12 alone=No peptide). In FIG. 10A, six-micron tissue sections were co-stained with anti-CD8 (green) and anti-NG2 (red) antibodies and imaged by fluorescence microscopy. Blue signal=nuclear counterstain using 4′,6-diamidino-2-phenylindole (DAPI). FIG. 10B provides a summary of the mean+/−SD number of CD8^+ cells per high-power field (HPF) in MC38 tumors isolated from control or vaccinated mice as depicted in FIG. 10A. In FIG. 10C, tissue sections were co-stained with anti-CD31 (green) and anti-NG2 (red) antibodies and imaged by fluorescence microscopy. Blue signal=nuclear counterstain using DAPI. In FIG. 10D, the mean+/−SD number of CD31^+ vessels per HPF of MC38 tumors in control or vaccinated mice are summarized Representative data is depicted from 1 of 3 independent experiments performed. *p<0.05 versus DC only or untreated control mice.
Fluorescence Imaging of Tumor Sections. Tumor tissue samples were prepared and 6 micron sections prepared as previously reported (Komita et al., Cancer Res., 68:8076-8084, 2008). The following Abs were used: (for T cell analyses), rabbit anti-mouse NG2 (Millipore, Bedford, Mass.) and alexa488-conjugated anti-CD4 or -CD8β antibodies or matching isotype controls (all from BD-Biosciences); (for vascular analyses), rat anti-mouse CD31 (BD-Biosciences) and rabbit anti-mouse NG2 (Millipore) Abs; (for TBVA), rat anti-mouse CD31 (BD-Biosciences) and guinea pig anti-mouse NG2 Abs, along with anti-TBVA as described in Example 1. Imaging was performed using an Olympus Fluoview 500 Confocal microscope (Olympus America, Center Valley, Pa.).
Protective vaccines incorporating TBVA peptides promote enhanced infiltration of the TME by CD8^+ T cells in association with an inhibition of tumor vascularity. MC38 tumor lesions from all cohorts of animals with evidence of disease on day 14 (post-tumor inoculation) were isolated and immunofluorescence microscopy on tumor sections was performed. […] In marked contrast, CD4^+ T cell infiltration in the TME was sparse and the data were indistinguishable when comparing control vs. vaccinated mice (FIG. 17). […] Correlative analyses indicated an association between the anti-tumor efficacy of vaccines and their ability to promote CD8^+ T cell infiltration and reduced vascularity in the TME (FIG. 16).

Experiment [2] deals with CD8+ T cells from HLA-A2+ normal donors or HLA-A2+ melanoma patients. The experiment is described as follows: In vitro sensitization of human CD8+ T cells with TASA peptide-pulsed autologous DC, IFN-γ ELISA against peptide-pulsed T2 cells. It counts as cell-based. As for the experimental part:
The indicated peptides were pulsed onto autologous DC and used to prime and boost CD8^+ T cells isolated from the peripheral blood of eight normal HLA-A2^+ donors or ten HLA-A2^+ patients with melanoma. Seven days after the primary in vitro sensitization (IVS) (melanoma patients) or a secondary IVS boost (normal donors), T cells were analyzed for their reactivity against HLA-A2^+ T2 cells pulsed with the relevant peptide vs. the negative control HIV-nef190-198 peptide. After 24 hours of co-culture, cell-free supernatants were analyzed for levels of secreted IFN-γ using a commercial ELISA. Data are reported in Bar and Whisker plots, with p-values provided for paired pre- versus post-IVS data from normal donors and patients. In addition, p<0.05 was detected for MEL-Post versus ND-Post for the following peptides: DLK1 (309), NG2 (770), NG2 (2238), PDGFRβ (891) and RGS5 (5).
In vitro assessment of human CD8^+ T cell responses against TASA- or TAA-derived peptides. Peripheral blood mononuclear cells (PBMC) were obtained by venipuncture or leukapheresis from HLA-A2^+ normal donors or HLA-A2^+ melanoma patients with written consent under IRB-approved protocols (Table 3). CD8^+ T cells were then isolated by MACS (Miltenyi Biotec, Auburn, Calif.) and either not stimulated or stimulated with autologous, TASA peptide-pulsed DC as previously described (Tatsumi et al., Cancer Res., 63:4481-4489, 2003). Normal donor T cells were stimulated with TASA peptide-pulsed DC twice on a weekly schedule, with responder T cells harvested for analysis of their specificity 5 days after the booster stimulation (i.e. day 12 of T cell-DC co-culture). Melanoma patient CD8^+ T cells were analyzed after a single round of stimulation with TASA peptide-pulsed, autologous DC (i.e. day 5 of T cell-DC co-culture) as indicated. For DC-based stimulations, DC were pulsed with an equimolar (1 μM each) pool of the TASA peptides (Table 4) for 4 h at 37° C. at 5% CO2 tension. These antigen-loaded DC were then used to stimulate autologous CD8^+ T cells at a T cell-to-DC ratio of 10:1 to generate a bulk population of responder T cells. T cells were maintained in IMDM media supplemented with 10% human AB serum, 100 U/ml penicillin, […], 10 mM L-glutamine and MEM non-essential amino acids (all reagents from Invitrogen, except human AB serum that was purchased from Sigma-Aldrich, St. Louis, Mo.). Responder CD8^+ T cells were analyzed for reactivity against control (HLA-A2^+) T2 cells or T2 cells pulsed with individual TASA or TAA peptides (1 μM for 4 h at 37° C.) at a CD8^+ T cell-to-T2 cell ratio of 5:1 for 24 h. Harvested cell-free supernatants were consequently assessed for hIFN-γ content using a specific ELISA (BD Biosciences, San Diego, Calif.) with a lower detection limit of 4.7 pg/ml.
CD8^+ T cells from HLA-A2^+ normal donors or HLA-A2^+ melanoma patients recognize TASA-derived peptides in vitro. To assess whether the TASA-derived peptides identified in the HHD tumor model were also capable of being recognized by human CD8^+ T cells, IVS was performed using T cells isolated from the peripheral blood of HLA-A2^+ donors or HLA-A2^+ patients with melanoma. DC were pulsed with peptides derived from a given TASA for 4 h at 37° C., then washed and used as stimulator cells for autologous CD8^+ T cells. In cases where more than one peptide existed for a given protein, DC were pulsed with an equimolar (10 μM) mixture of each peptide. Two rounds of IVS using TASA for normal donors and a single-round of IVS using TASA for melanoma patients was applied. HLA-A2^+ normal donors (FIG. 4; Tables 4, 5A and 5B) and melanoma patients (FIG. 4; Tables 4, 5A and 5B) were each capable of recognizing many of the TASA-derived peptides.
(ELISA stands for enzyme-linked immunosorbent assay.)

Where no end group is shown, it is not given here.

The text below walks through data of US9937250B2, “Immunogenic tumor associated stromal cell antigen peptides and methods of their use” (University of Pittsburgh—Of the Commonwealth System of …, priority 2011, dated 2018).

For the substance “VEGFR2: VEGFR2-derived peptide 773-781 pulsed onto DC or DC.IL12 (VIAMFFWLL; listed as Homo sapiens)”, in the experiment on MC38 colon carcinoma, the “Anti-tumor efficacy in MC38 protection model” value is given as “+/- (+/-, p < 0.05 versus DC only for 2 consecutive time points)” and the “Protection against HLA-A2neg MC38 tumor challenge” value is on record as “minimal protection”. The “Suppression in CD31+ vessel counts in the MC38 TME” value in experiment [1] is on record as “somewhat less pronounced effects”.
Regarding “NRP2: equimolar pool of the three NRP2-derived peptides (214-222, 328-336, 436-444), pulsed onto DC or DC.IL12 (chain 1 DIWDGIPHV; chain 2 YLQVDLRFL; chain 3 NMLGMLSGL; also: equimolar pool of three peptides; listed as Homo sapiens)”, the “Anti-tumor efficacy in MC38 protection model” value with MC38 colon carcinoma is reported as “-”. The “Protection against HLA-A2neg MC38 tumor challenge” value in the experiment with MC38 colon carcinoma was “minimal protection”. The “Specific CD8+ T cell Production of IFN-γ in Response to TASA” value was “+ (Human responses were designated as + if T cell reactivity against T2 cells presenting the indicated peptide (IFN-γ ELISA) was >30 pg/ml and more than 2 fold higher than reactivity versus T2 cells pulsed with the negative control HIV-nef190-198 peptide)” in experiment [2] (donor Mel1, melanoma patient); “+ (Human responses were designated as + if T cell reactivity against T2 cells presenting the indicated peptide (IFN-γ ELISA) was >30 pg/ml and more than 2 fold higher than reactivity versus T2 cells pulsed with the negative control HIV-nef190-198 peptide)” in experiment [2] (donor Mel2, melanoma patient); “+ (Human responses were designated as + if T cell reactivity against T2 cells presenting the indicated peptide (IFN-γ ELISA) was >30 pg/ml and more than 2 fold higher than reactivity versus T2 cells pulsed with the negative control HIV-nef190-198 peptide)” in experiment [2] (donor Mel4, melanoma patient); “+ (Human responses were designated as + if T cell reactivity against T2 cells presenting the indicated peptide (IFN-γ ELISA) was >30 pg/ml and more than 2 fold higher than reactivity versus T2 cells pulsed with the negative control HIV-nef190-198 peptide)” in experiment [2] (donor Mel5, melanoma patient).
